Values after ≈ are worked out from the molar mass of the structure shown. Like-named read-outs stand apart in the source and are kept apart here.
Experiments:
[1] = test system: Zygomycete (Clinical Lab isolate, MDACC); experiment: Extended mold testing, MIC (CLSI M38A); assay type: cell-based; settings: H3 final use-formulation, range 75 μg/mL to 0.07 μg/mL, 48 hr, read-out: MIC
From the text: To further determine the antifungal activity of the compounds in the new formulation systems we investigated the efficacy of the various agents against additional strains of mucor and Aspergillus (9/-16-9/20/2010) (The Rhizomucor was a clinical isolate from a patient isolate) and the Aspergillus fumigatus (ATCC strain 90906) used was a repeat from the previously described experiment. Again, the susceptibility tests were set-up using the standardized test method (CLSI M38A). The used drugs were provided in the described H3 final use-formulation that has been previously described. All drugs were diluted in RPMI-Mops medium (YeastOne, Sensititer Lot 151416SA, expiration date January 2011).
As before two different molds were tested with a standard read out at 48 hr: • Drug dilution range 75 μg/mL to 0.07 μg/mL. • Aspergillus fumigatus (ATCC strain 90906) Zygomycete (Clinical Lab isolate, MDACC)

[2] = Stability of ITZA/POSA in solvent vehicles (HPLC); assay type: physicochemical
Description: The ITZA in solvent H3 was incubated in sealed tubes. […] For both short-term and long-term stability studies, triplicate samples at various time points were analyzed quantitatively by HPLC after appropriate dilutions. In the next step the stability of ITZA (at approximately 4 mg/mL) in a preferred composite solvent at a clinically relevant stock concentration by itself, and after dilution with a similar volume of a clinically acceptable infusion fluid, was determined at room temperature. ITZA was dissolved at a final stock concentration of 2-6 mg/mL in benzyl alcohol with acidified EtOH/PEG-400 (prototype ITZA stock solvent vehicle) and incubated at RT and at 40° C. The resulting ITZA concentrations were measured by HPLC in samples taken immediately after solubilization, then hourly for 8 hours, and then at gradually increasing time intervals for up to several days (weeks), depending on the initial rate of solubilization/degradation in the respective solvent system.

[3] = Maximum solubility of ITZA and azole analogues in solvents (HPLC); assay type: physicochemical; settings: for solubility thermodynamic at 1 h: within 1 hour at RT, read-out: Maximum equilibrium solubility
Description: ITZA and its analogues were dissolved in various solvents incubated at 37° C. for 30 minutes, cooled down to room temperature, centrifuged at 14,000 rpm for 1 min. The supernatant was analyzed using HPLC to determine the maximum solubility of ITZA and its azole analogues.
In a first step the maximum ITZA solubility in various single solvents was determined. To this end, ITZA and its analogs were dissolved in various solvents, incubated at 37° C. for 30 minutes, cooled down to room temperature, centrifuged at 14,000 rpm for 1 min. The supernatant was analyzed using HPLC to determine the maximum solubility of the respective agent.
The solubility of ITZA was determined in several individual vehicles. Briefly, a known amount of ITZA drug, formulated as a powder (Sigma Inc., St Louis, Mo.), was equilibrated in the respective solvent at RT over 1-4 hours. An aliquot was removed, filtered, and prepared for HPLC to determine maximum solubility at room temperature. Based on the ITZA solubility in each vehicle, different solvents were mixed according to the cosolvency principle in an attempt to arrive at an enhanced stable solubility. […] The stock formulation was then diluted with a final diluent, i.e. NS or D5W or DlOW, to yield a stable use-formulation. The desired range of the final use-formulation was between 1 and 5 mg/mL, as it would result in a final volume that could be safely and conveniently infused intravascularly.
An excess of ITZA as a powder was added to a multitude of chemical solvents (Table 1) at RT. Each mixture was intermittently vortexed, placed in a dark environment and checked visually for up to 4 hours for evidence of solubilization. Following centrifugation to remove solid particles, small samples were withdrawn after consecutive time intervals and the ITZA concentration was determined by HPLC as described.

CCC(C)n1ncn(-c2ccc(N3CCN(c4ccc(OCC5COC(Cn6cncn6)(c6ccc(Cl)cc6Cl)O5)cc4)CC3)cc2)c1=O (centres unmarked) [ITZA, itraconazole]
MIC [1]: 2.5 µg/mL (≈ 0.00354 mM)
Stability (% remaining) ([2]; 2 mg/mL, normal saline as final dilution solution, at least 24 hours at RT): more than 90%
stability of ITZA ([2]; H3D/5% dex., day 3): 108%
stability of ITZA ([2]; H3D/sal., day 4): 102%
stability of ITZA ([2]; H3G/10% dex., day 1): 102%
Stability (%) ([2]; parent solvent H3, approximately 4 mg/mL, room temperature, 48 hrs): 96%
Stability (%) ([2]; parent solvent H3, approximately 4 mg/mL, room temperature, 7 days (1 w)): 91%
Stability (%) ([2]; parent solvent H3, approximately 4 mg/mL, room temperature, 9 days): 84%
Stability (%) ([2]; parent solvent H3, approximately 4 mg/mL, room temperature, 18 days): 80%
Stability (%) ([2]; solvent H3, approximately 4 mg/mL, 40° C., 72 hr): 76%
Stability (%) ([2]; solvent H3, approximately 4 mg/mL, 40° C., 10 days): 59%
Stability (%) ([2]; solvent H3, approximately 4 mg/mL, 40° C., 11 days): 58%
Stability (%) ([2]; solvent H3, approximately 4 mg/mL, 40° C., time 0): 100%
Stability (%) ([2]; solvent H3/normal saline (1:1), approximately 2.0 mg/mL, RT, 6 hrs): 101%
solubility ([3]; 2M citric acid, aqueous buffer, thermodynamic from solid, in 2M citric acid, read-out: Maximum solubility): 3220 µg/mL (≈ 4.56 mM)
solubility ([3]; 6N HCl, aqueous buffer, thermodynamic from solid, in 6N HCl, read-out: Maximum solubility): 7410 µg/mL (≈ 10.5 mM)
solubility ([3]; 25% acetic acid, aqueous with cosolvent or surfactant or cyclodextrin, thermodynamic from solid, in 25% Acetic acid, read-out: Maximum solubility): 300 µg/mL (≈ 0.425 mM)
solubility ([3]; 50% acetic acid, aqueous with cosolvent or surfactant or cyclodextrin, thermodynamic from solid, in 50% Acetic acid, read-out: Maximum solubility): 12900 µg/mL (≈ 18.3 mM)
solubility ([3]; Intralipid, oil or lipid, thermodynamic from solid, in Intralipid, read-out: Maximum solubility): 150 µg/mL (≈ 0.213 mM)
solubility ([3]; PEG 200, organic solvent or mixture, thermodynamic from solid, in PEG 200, read-out: Maximum solubility): 1450 µg/mL (≈ 2.05 mM)
solubility ([3]; PEG 300, organic solvent or mixture, thermodynamic from solid, in PEG 300, read-out: Maximum solubility): 1810 µg/mL (≈ 2.57 mM)
solubility ([3]; PEG 400, organic solvent or mixture, thermodynamic from solid, in PEG 400, read-out: Maximum solubility): 2510 µg/mL (≈ 3.56 mM)
solubility ([3]; acetic acid, organic solvent or mixture, thermodynamic from solid, in Acetic acid, read-out: Maximum solubility): 144000 µg/mL (≈ 205 mM)
solubility ([3]; benzyl alcohol, organic solvent or mixture, thermodynamic from solid, in Benzyl alcohol, read-out: Maximum solubility): > 128000 µg/mL
Solubility (in words) ([3]; diluted acetic acid, H2O, Normal saline, 5% Dextrose, Polyoxyethylated castor oil, Propylene glycol, 2 M citric acid, Ethanol, HCl, PEG400, Intralipid): insignificant solubility
solubility ([3]; ethanol, organic solvent or mixture, thermodynamic from solid, in Ethanol, read-out: Maximum solubility): 410 µg/mL (≈ 0.581 mM)
Maximum solubility ([3]; in 10% Acetic acid): 860 µg/mL
Maximum solubility ([3]; in Polyoxyethylated castor oil): 890 µg/mL
solubility ([3]; normal saline, saline or isotonic, thermodynamic from solid, in Normal saline, read-out: Maximum solubility): 480 µg/mL (≈ 0.68 mM)
solubility ([3]; organic solvent or mixture, thermodynamic from solid, benzyl alcohol containing solvent H3, room temp, read-out: Maximum solubility): ~31400 µg/mL (≈ 44.5 mM)
solubility thermodynamic at 1 h ([3]; organic solvent or mixture, thermodynamic from solid, Benzyl alcohol): > 100000 µg/mL
solubility thermodynamic at 1 h ([3]; organic solvent or mixture, thermodynamic from solid, pure (glacial) acetic acid): > 100000 µg/mL
solubility ([3]; propylene glycol, organic solvent or mixture, thermodynamic from solid, in Propylene glycol, read-out: Maximum solubility): 140 µg/mL (≈ 0.198 mM)
solubility ([3]; solvent B (with Tween 80), aqueous with cosolvent or surfactant or cyclodextrin, thermodynamic from solid, solvent B (with Tween 80), read-out: Maximum solubility): 29000 µg/mL (≈ 41.1 mM)
solubility at 30 min ([3]; solvent H3D (no benzyl alcohol), organic solvent or mixture, thermodynamic from solid, solvent H3D (no benzyl alcohol), single determination, read-out: Azole solubility, [Drug] mg/mL): 19.1 mg/mL (≈ 27.1 mM)
solubility at 30 min ([3]; solvent H3D (no benzyl alcohol), organic solvent or mixture, thermodynamic from solid, solvent H3D (no benzyl alcohol), read-out: Azole solubility, Average mg/mL): 19 mg/mL (≈ 26.9 mM)
Azole solubility, [Drug] mg/mL ([3]; solvent H3D (no benzyl alcohol), single determination): 18.9 mg/mL
solubility at 30 min ([3]; solvent H3G (no benzyl alcohol), organic solvent or mixture, thermodynamic from solid, solvent H3G (no benzyl alcohol), single determination, read-out: Azole solubility, [Drug] mg/mL): 19.2 mg/mL (≈ 27.2 mM)
solubility at 30 min ([3]; solvent H3G (no benzyl alcohol), organic solvent or mixture, thermodynamic from solid, solvent H3G (no benzyl alcohol), read-out: Azole solubility, Average mg/mL): 19.3 mg/mL (≈ 27.4 mM)
Azole solubility, [Drug] mg/mL ([3]; solvent H3G (no benzyl alcohol), single determination): 19.4 mg/mL
solubility ([3]; solvent J1, organic solvent or mixture, thermodynamic from solid, solvent J1, read-out: Solubility): 18100 µg/mL (≈ 25.7 mM)
solubility ([3]; solvent J2): 15990 µg/mL (≈ 22.7 mM)
solubility ([3]; solvent J3): 10110 µg/mL (≈ 14.3 mM)
solubility ([3]; solvent J4, organic solvent or mixture, thermodynamic from solid, solvent J4, read-out: Solubility): 6090 µg/mL (≈ 8.63 mM)
solubility ([3]; solvent J5, organic solvent or mixture, thermodynamic from solid, solvent J5, read-out: Solubility): 3540 µg/mL (≈ 5.02 mM)
solubility ([3]; solvent K, organic solvent or mixture, thermodynamic from solid, solvent K, RT, read-out: Maximum solubility): 11100 µg/mL (≈ 15.7 mM)
Maximum solubility ([3]; solvent L): 5000 µg/mL
